According to PubChem BioAssay AID1902 (Broad Institute, 2009):
Active and inactive are the calls of the source.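 How the source made its calls: active means EC50 no more than a set limit of log units above the highest dose; inactive means the rest.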

These compounds were tested against S. pyogenes SKKanGAS, kanamycin survival, BacTiterGlo, 6 h (assay: S. pyogenes SKKanGAS kanamycin growth inhibitors – SKKanGAS strain, luminescence, dose confirmation, streptokinase promoter inhibitor project, dose response (AID 1902);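 further: lower survival reflects blocked streptokinase promoter driving kanamycin resistance gene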).

| SMILES | EC50 |
| --- | --- |
| Clc1cccc(Nc2ncnc3c2cnn3-c2ccccc2)c1 | 4.98 µM |
| COc1cccc(N2CCN(c3ncnc4c3[nH]c3ccc(F)cc34)CC2C)c1 (centres undefined) | 6.85 µM |
| Cc1ccc2c(c1)C(=O)CC1(CCC(C(C)(C)C)CC1)O2 (centres undefined) | 3.01 µM |
| CCOC(=O)c1c(NC(=O)COC(=O)c2ccc(C)s2)sc2c1CC(C)(C)NC2(C)C | 3.7 µM |
| OC(COCC(F)(F)C(F)(F)C(F)(F)C(F)F)Cn1c2ccc(Cl)cc2c2cc(Cl)ccc21 (centres undefined) | 2.16 µM |
| Cc1cc([N+](=O)[O-])cc(/C=N\NC(=O)C2COc3ccccc3O2)c1O (centres undefined) | 1.52 µM |
| O=C1CCSc2ccc(Cl)cc2N1Cc1ccc(Cl)cc1 | 3.93 µM |
| CCOC(=O)c1ccc(-n2c(O)c(/C=N/NC(=O)C3COc4ccccc4O3)c3ccccc3c2=O)cc1 (centres undefined) | 1.55 µM |
| CCOC(=O)CCC(=O)O[C@H]1[C@H](O[C@@H]2[C@@H](C)[C@H](O[C@H]3C[C@@](C)(OC)[C@@H](O)[C@H](C)O3)[C@@H](C)C(=O)O[C@H](CC)[C@@](C)(O)[C@H](O)[C@@H](C)C(=O)[C@H](C)C[C@@]2(C)O)O[C@H](C)C[C@@H]1N(C)C | < 0.06 µM |
| CCOC(=O)C1=C(N)c2ccccc2CC1C1CCCC1 (centres undefined) | 3.26 µM |
| O=[N+]([O-])c1ccc(O)c(/C=N/Nc2ccc(Cl)nn2)c1 | 0.252 µM |
| Oc1ccc(/C=C/c2ccc3cccc(O)c3n2)cc1Br | 1.04 µM |
| O=C(OCc1ccc(-c2ccccc2)cc1)c1cccc(O)c1 | 6.29 µM |
| O=C(c1ccc(F)cc1)c1cc2ccc(O)cc2oc1=O | 7.31 µM |
| C/C(N)=C(/C#N)C(=O)CSc1nc2scc(-c3ccc(F)cc3)c2c(=O)n1C | 2.1 µM |
| COc1cc(NC(=O)c2cc3nc(-c4ccccc4)cc(-c4ccccc4)n3n2)cc(OC)c1OC | 10.1 µM |
| Nc1ccc2c(c1)C(=O)C(=O)c1ccccc1-2 | 0.754 µM |
| CCOc1cc(-c2cc(-c3ccc(NC(C)=O)cc3)nc(N)c2C#N)ccc1O | 0.919 µM |
| COc1ccccc1N=C1NC(=O)/C(=C/c2ccc(N(C)C)cc2)S1 | 6.08 µM |
| Brc1ccc(Nc2ncnc3[nH]ncc23)cc1 | 8.45 µM |
| Cn1c(=O)[nH]c(=O)c2c1nc(N1CCC(Cc3ccccc3)CC1)n2Cc1ccccc1 | 3.91 µM |
| CC(C)CN(Cc1cc(=O)oc2cc3c(cc12)CCCC3)CC(C)C | 7.82 µM |
| Cc1cnc(NC(=O)c2cc3c(C)nn(-c4ccccc4)c3s2)s1 | 0.831 µM |
| CCc1ccc(S(=O)(=O)/N=C2\C=C(Nc3cccc(C(=O)O)c3)C(=O)c3ccccc32)cc1 | 1.71 µM |
| CC1COc2c(N3CCN(C)CC3)c(F)cc3c(=O)c(C(=O)O)cn1c23 (centres undefined) | 3.69 µM |
| O=C(NCc1ccco1)c1cc2ccc(O)cc2oc1=O | 5.85 µM |
| C[C@@H](O)[C@H]1C(=O)N2C(C(=O)O)=C(S[C@@H]3CN[C@H](C(=O)N(C)C)C3)[C@H](C)[C@H]12 | 0.127 µM |

| SMILES | EC50 |
| --- | --- |
| CCC(C)Sc1cc(C(F)(F)F)c(C(=O)Nc2ccc(Cl)cc2)cn1 (centres undefined) | 7.31 µM |
| Cc1cc2occ(CC(=O)NC3=NCCS3)c2cc1C(C)C | 4.35 µM |
| CCOc1ccc(Cl)cc1S(=O)(=O)n1cnc2cc(C)c(C)cc21 | 4.77 µM |
| N#CC1=C(c2ccccc2)/C(=C/c2ccccc2)OC1=O | 9.97 µM |
| COC(=O)C1N2C(=O)[C@@H](NC(=O)COc3ccccc3)[C@H]2SC1(C)C (some centres undefined) | 0.377 µM |
| CCCCc1c(C)nn(-c2nnc3c4ccccc4n(CC)c3n2)c1C | 1.84 µM |
| O=C(N/N=C/c1cc2c3c(c1O)CCCN3CCC2)c1ccccc1O | 7.14 µM |
| CCOc1ccc(-c2nc3n(c(=O)c2C#N)CCCS3)cc1 | 7.33 µM |
| Oc1ccc(N=Nc2ccc3c(c2)OCCO3)c2cccnc12 | 0.257 µM |
| COc1ccc(C)cc1N=Nc1ccc(O)c2ncccc12 | 0.168 µM |
| Cc1cccc(N2CCN(C(=O)c3cc4n(n3)C(C(F)(F)F)CC(c3ccco3)N4)CC2)c1C (centres undefined) | 4.2 µM |
| COc1ccc(NC(=S)NNc2ccc([N+](=O)[O-])cc2S(=O)(=O)Nc2ccc(C)cc2C)cc1 | 8.34 µM |
| COc1ccc(S(=O)(=O)N/N=C(/C)c2ccncc2)cc1 | > 15 µM (inactive) |
| CC(C)(C)CC(=O)N1CCC(c2nc3c(nnn3Cc3c(F)cccc3Cl)c(=O)[nH]2)CC1 | 2.8 µM |
| FC(F)(F)c1cc(-c2ccccc2)nc(N2CCCCCC2)n1 | 3.93 µM |
| [O-][n+]1c2ccccc2[n+]([O-])c2cc(O)ccc21 | 5.86 µM |
| Brc1ccccc1C1Nc2cccc3cccc(c23)N1 | 5.03 µM |
| Cc1cc2oc(=O)cc(CNc3ccccc3F)c2cc1O | 10.2 µM |
| Cc1cc(/C=C2\SC(=S)N(C)C2=O)c(C)n1-c1ccc(O)cc1 | 2.09 µM |
| Cc1ccc(C)c(CN2CCCN(Cc3cc(C)ccc3C)S2(=O)=O)c1 | 2.58 µM |
| O=C(O)CN1C(=O)/C(=C\c2cc(Br)ccc2OCc2ccc(Cl)cc2)SC1=S | 1.56 µM |
| O=C(Cc1ccc(Br)cc1)Nc1nc2ccccc2[nH]1 | 4.55 µM |
| COc1cccc(/C=N/NC(=O)c2c(C)nc3ccc(Cl)cn23)c1O | 5.63 µM |
| Cc1csc2nc(CSc3nc4ccccc4o3)c(Br)n12 | 6.42 µM |
| O=C(NCC1CCCO1)c1cc2c([nH]c3ccccc32)c(-c2cccc(Cl)c2)n1 (centres undefined) | 4.27 µM |
| O=c1cc(N2CCCCC2)c(-c2ccccc2)nn1Cc1ccc(Cl)cc1Cl | 3.04 µM |
| Cc1nc2c(-c3ccccc3)c(C)[nH]n2c(=O)c1Cc1ccccc1 | 6.27 µM |
